Legend:
[1] = biological target: T1, Cyclin-dependent kinase 4/cyclin D1 (Homo sapiens, UniProt P11802); assay: Inhibitory activity against Cyclin D1-cyclin-dependent kinase 4 in enzymatic assay by measuring phosphorylation of RbING; format: protein-complex assay
[2] = biological target: cAMP-dependent protein kinase (PKA) (Homo sapiens, UniProt P22694+P17612+P22612); assay: Inhibitory activity against Protein kinase A (Histone); format: protein assay
[3] = biological target: T1, Cyclin-dependent kinase 4/cyclin D1; assay: Inhibitory activity against Cyclin D1-cyclin-dependent kinase 4 in enzymatic assay by measuring phosphorylation of Rb21; format: protein-complex assay
[4] = system: HCT-116; assay: Flow cytometry of HCT116 cells, G1 arrest ( fold increase over control) after 24 hr r; format: functional, Homo sapiens
[5] = system: HCT-116; assay: In vitro antiproliferative activity against human carcinoma cell line HCT116 (colon); format: functional, cell-based
[6] = biological target: Cyclin-dependent kinase 2/cyclin E (Homo sapiens, UniProt P24941); assay: Inhibitory activity against Cyclin E-cyclin-dependent kinase 2 in enzymatic assay by measuring phosphorylation of RbING; format: protein-complex assay
[7] = system: NCI-H460; assay: In vitro antiproliferative activity against human carcinoma cell line H460 (lung); format: functional, cell-based
[8] = biological target: Cyclin-dependent kinase 4 (Homo sapiens) (UniProt P11802); assay: Inhibition of Rb phosphorylation at the CDK4 specific Ser780 residue (1 fold increase over control) after 24 hr incubation in HCT116 cells; format: functional, cell-based; details: HCT-116, concentration not given here
[9] = biological target: Cyclin-dependent kinase 4 (Homo sapiens) (UniProt P11802); assay: Inhibition of Rb phosphorylation at the CDK4 specific Ser780 residue (3 fold increase over control) after 24 hr incubation in HCT116 cells; format: functional, cell-based; details: HCT-116, concentration not given here
[10] = system: HCT-116; assay: Flow cytometry of HCT116 cells, G1 arrest (fold increase over control) after 24 hr r incubation; format: functional, Homo sapiens
[11] = system: HCT-116; assay: Flow cytometry of HCT116 cells, G1 arrest (1 fold increase over control) after 24 hr r; format: functional, Homo sapiens
[12] = system: HCT-116; assay: Flow cytometry of HCT116 cells, G1 arrest (3 fold increase over control) after 24 hr r; format: functional, Homo sapiens

T1 sequence (P11802 whole entry): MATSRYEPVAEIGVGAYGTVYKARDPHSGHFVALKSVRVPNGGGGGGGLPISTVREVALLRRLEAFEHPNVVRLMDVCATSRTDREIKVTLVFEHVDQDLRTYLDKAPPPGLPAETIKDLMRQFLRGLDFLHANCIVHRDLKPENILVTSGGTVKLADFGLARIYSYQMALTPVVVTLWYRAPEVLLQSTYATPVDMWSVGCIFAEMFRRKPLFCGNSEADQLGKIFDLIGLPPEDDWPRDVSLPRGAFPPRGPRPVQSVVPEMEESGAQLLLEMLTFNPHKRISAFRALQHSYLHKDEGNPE
T1 sequence (P24385 whole entry, further chain): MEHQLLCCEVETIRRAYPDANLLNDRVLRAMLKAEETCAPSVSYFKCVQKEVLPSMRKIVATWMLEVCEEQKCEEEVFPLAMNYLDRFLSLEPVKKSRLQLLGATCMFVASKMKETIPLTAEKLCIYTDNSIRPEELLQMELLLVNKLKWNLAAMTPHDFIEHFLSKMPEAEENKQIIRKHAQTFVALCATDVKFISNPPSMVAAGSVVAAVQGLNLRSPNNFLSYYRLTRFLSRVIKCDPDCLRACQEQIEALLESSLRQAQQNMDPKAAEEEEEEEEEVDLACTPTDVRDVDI
Cyclin-dependent kinase 4 (Homo sapiens), sequence (P11802 whole entry): as the sequence (P11802 whole entry) above

Row | Compound | IC50 [1] [nM] | IC50 [2] [nM] | IC50 [3] [nM] | Fold increase [4] | IC50 [5] [nM] | IC50 [6] [nM] | IC50 [7] [nM] | inhibition [8] [%] | inhibition [9] [%] | Fold increase [10] | Fold increase [11] | Fold increase [12]
1 | Cn1ccc2ccc3c4[nH]c5ccccc5c4c4c(c3c21)C(=O)NC4=O | 47 | > 2000 | 22 | 2.5 | 2110 | 75 | 1170 | 63 | 97 | 1.4 | – | –
2 | Cn1ccc2ccc3c4[nH]c5c(CCO)cccc5c4c4c(c3c21)C(=O)NC4=O | 82 | > 2000 | 75 | – | 1130 | 210 | – | 60 | 92 | – | 1.4 | 2.7
